Data as given in patent publication US10280150B2 (FORMA TM2, Inc., priority 2014, dated 2019).
pIC50: −log10 of the molar value. Where two headings read alike, the source gives them in different places.

Assays:
[1] = system: HCT116 isogenic IDH1-R132C mutant cells; experiment: Cellular 2-HG assay using HCT116 mutant IDH1 cells (R132C), RapidFire mass spectrometry; assay type: cell-based; conditions: Homo sapiens, read-out: HCT116 IDH1 R132C IC50 (Range)
Experimental: (§1) Example 106—Cellular 2-HG assay using HCT116 mutant IDH1 cells
(§2) HCT116 isogenic IDH1-R132H and IDH1-R132C mutant cells were cultured in growth media (McCoy's 5 A, 10% fetal bovine serum, 1× antibiotic-antimycotic solution and 0.3 mg/mL G418) in 5% CO2 in an incubator at 37° C. To prepare the assay, cells were trypsinized and resuspended in assay media (McCoy's 5 A with no L-glutamine, 10% fetal bovine serum, 1× antibiotic-antimycotic solution and 0.3 mg/mL G418). An aliquot of 10,000 cells/100 μL was transferred to each well of a clear 96-well tissue culture plate. The cells were incubated in 5% CO2 at 37° C. in an incubator overnight to allow for proper cell attachment. An aliquot of 50 μL of compound containing assay media were then added to each well and the assay plate was kept in 5% CO2 at 37° C. in an incubator for 24 hours. The media was then removed from each well and 150 μL of a methanol/water mixture (80/20 v/v) was added to each well. The plates were kept at −80° C. freezer overnight to allow for complete cell lysis. An aliquot of 125 μL of extracted supernatant was analyzed by RapidFire high-throughout-mass spectrometry (Agilent) to determine the cellular 2-HG level. The IC50 of a given compound was calculated by fitting the dose response curve of cellular 2-HG inhibition at a given concentration with the four parameter logistic equation.

[2] = target: IDH1-R132C recombinant protein (Homo sapiens (Human), UniProt O75874, R132C); experiment: IDH1-R132C enzymatic assay (inhibition of NADPH consumption, diaphorase/resazurin readout); assay type: biochemical; conditions: read-out: Enzyme IDH1 R132C IC50 (Range)
Experimental: Assays were performed in a 384-well black plate. An aliquot of 250 nL of compound was incubated with 10 μL of 30 nM IDH1-R132H or 10 nM IDH1-R132C recombinant protein in assay buffer (50 mM Tris pH=7.5, 150 mM NaCl, 5 mM MgCl2, 0.1% (w/v) Bovine Serum Albumin, and 0.01% Triton X-100) in each well at 25° C. for 15 minutes. After the plate was centrifuged briefly, an aliquot of 10 μL of 2 mM α-ketoglutarate and 20 μM NADPH solution prepared in assay buffer was then added to each well and the reaction was maintained at 25° C. for 45 minutes. An aliquot of 10 μL of diaphorase solution (0.15 U/mL diaphorase and 30 µM Resazurin in assay buffer) was added to each well. The plate was maintained at 25° C. for 15 minutes and then read on a plate reader with excitation and emission wavelengths at 535 nm and 590 nm, respectively. The IC50 of a given compound was calculated by fitting the dose response curve of inhibition of NADPH consumption at a given concentration with the four parameter logistic equation.

[3] = target: IDH1-R132H recombinant protein (Homo sapiens (Human), UniProt O75874, R132H); experiment: IDH1-R132H enzymatic assay (inhibition of NADPH consumption, diaphorase/resazurin readout); assay type: biochemical; conditions: read-out: Enzyme IDH1 R132H IC50 (Range)
How it was run: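 Compound was preincubated 15 min at 25 °C with 30 nM IDH1-R132H or 10 nM IDH1-R132C in Tris pH 7.5 buffer with MgCl2, BSA and Triton X-100. Reaction with 2 mM α-ketoglutarate and 20 μM NADPH (solution concentrations) ran 45 min at 25 °C. Remaining NADPH was detected via diaphorase/resazurin fluorescence (ex 535/em 590 nm), and IC50 came from four-parameter fits.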

[4] = system: HCT116 isogenic IDH1-R132H mutant cells; experiment: Cellular 2-HG assay using HCT116 mutant IDH1 cells (R132H), RapidFire mass spectrometry; assay type: cell-based; conditions: Homo sapiens, read-out: HCT116 IDH1 R132H IC50 (Range)
Experimental: as §1, §2

[5] = HCT-116, cellular 2-HG level, HCT116 IDH1-R132C cells, 24 hours
[6] = HCT-116, cellular 2-HG level, HCT116 IDH1-R132H cells, 24 hours

IDH1-R132H recombinant protein, sequence (O75874 whole entry R132H): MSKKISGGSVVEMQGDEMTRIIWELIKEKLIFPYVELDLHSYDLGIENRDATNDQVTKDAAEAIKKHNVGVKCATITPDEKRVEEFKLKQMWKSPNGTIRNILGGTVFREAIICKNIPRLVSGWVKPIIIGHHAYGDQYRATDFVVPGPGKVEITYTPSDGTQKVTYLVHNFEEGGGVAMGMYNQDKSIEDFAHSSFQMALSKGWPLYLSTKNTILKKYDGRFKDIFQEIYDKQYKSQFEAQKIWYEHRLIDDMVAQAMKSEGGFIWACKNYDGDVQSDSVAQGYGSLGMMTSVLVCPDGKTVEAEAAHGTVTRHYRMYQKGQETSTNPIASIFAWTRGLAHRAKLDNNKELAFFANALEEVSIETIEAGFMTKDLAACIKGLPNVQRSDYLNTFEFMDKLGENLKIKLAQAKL
IDH1-R132C recombinant protein, sequence (O75874 whole entry R132C): as the sequence (O75874 whole entry R132H) above, with H132C counted along it

Structure (SMILES) | pIC50 [1, 5] | pIC50 [2] | pIC50 [3] | pIC50 [4, 6] | pIC50 ([1]; HCT-116, 24 h) | pIC50 ([4]; HCT-116, 24 h)
CC(=O)Nc1ccnc(N[C@@H](C)c2cc3cc(Cl)ccc3[nH]c2=O)n1 [Compound I-25, (S)—N-(2-((1-(6-Chloro-2-oxo-1,2-dihydroquinolin-3-yl)ethyl)amino)pyrimidin-4-yl)acetamide] | > 7.00 | > 7.00 | > 7.00 | > 7.00 | – | –
C[C@H](Nc1nccc(NC(=O)C2CC2)n1)c1cc2cc(Cl)ccc2[nH]c1=O [Compound I-29] | 6.00 to 7.00 | > 7.00 | > 7.00 | 6.00 to 7.00 | – | –
CCC(=O)Nc1ccnc(N[C@@H](C)c2cc3cc(Cl)ccc3[nH]c2=O)n1 [Compound I-33] | 6.00 to 7.00 | > 7.00 | > 7.00 | > 7.00 | – | –
COc1nc(N[C@@H](C)c2cc3cc(Cl)ccc3[nH]c2=O)ncc1C#N [Compound I-36, (S)-2-((1-(6-Chloro-2-oxo-1,2-dihydroquinolin-3-yl)ethyl)amino)-4-methoxypyrimidine-5-carbonitrile] | – | 6.00 to 7.00 | > 7.00 | – | 6.00 to 7.00 | > 7.00
C[C@H](Nc1nccc(N2CCOC2=O)n1)c1cc2cc(Cl)ccc2[nH]c1=O [Compound I-44, (S)-3-(2-((1-(6-Chloro-2-oxo-1,2-dihydroquinolin-3-yl)ethyl)amino)pyrimidin-4-yl)oxazolidin-2-one] | 6.00 to 7.00 | > 7.00 | > 7.00 | > 7.00 | – | –
O=C1OCCN1c1ccnc(NCc2cc3cc(Cl)ccc3[nH]c2=O)n1 [Compound I-47] | 5.00 to 6.00 | 6.00 to 7.00 | 6.00 to 7.00 | 6.00 to 7.00 | – | –
Cc1cccn1-c1ccnc(N[C@@H](C)c2cc3cc(Cl)ccc3[nH]c2=O)n1 [Compound I-51, (S)-6-Chloro-3-(1-((4-(2-methyl-1H-pyrrol-1-yl)pyrimidin-2-yl)amino)ethyl) quinolin-2(1H)-one] | 6.00 to 7.00 | 6.00 to 7.00 | > 7.00 | 6.00 to 7.00 | – | –
C[C@H](Nc1nccc(-n2ccnc2)n1)c1cc2cc(Cl)ccc2[nH]c1=O [Compound I-54] | 5.00 to 6.00 | 5.00 to 6.00 | 6.00 to 7.00 | 5.00 to 6.00 | – | –
C[C@H](Nc1nccc(-n2cnc3c2CCC3)n1)c1cc2cc(Cl)ccc2[nH]c1=O [Compound I-55] | 6.00 to 7.00 | 6.00 to 7.00 | 6.00 to 7.00 | 6.00 to 7.00 | – | –
Cc1oncc1-c1ccnc(N[C@@H](C)c2cc3cc(Cl)ccc3[nH]c2=O)n1 [Compound I-58, (S)-6-Chloro-3-(1-((4-(5-methylisoxazol-4-yl)pyrimidin-2-yl)amino)ethyl)quinolin-2(1H)-one] | 5.00 to 6.00 | 5.00 to 6.00 | > 7.00 | 5.00 to 6.00 | – | –
Cc1nnnn1-c1ccnc(N[C@@H](C)c2cc3cc(Cl)ccc3[nH]c2=O)n1 [Compound I-59, (S)-6-chloro-3-(1-((4-(5-methyl-1H-tetrazol-1-yl)pyrimidin-2-yl)amino)ethyl)quinolin-2(1H)-one] | 6.00 to 7.00 | 6.00 to 7.00 | > 7.00 | 6.00 to 7.00 | – | –
C[C@H](Nc1nccc(-c2cncn2CC(F)(F)F)n1)c1cc2cc(Cl)ccc2[nH]c1=O [Compound I-60, (S)-6-Chloro-3-(1-((4-(1-(2,2,2-trifluoroethyl)-1H-imidazol-5-yl)pyrimidin-2-yl)amino)ethyl)quinolin-2(1H)-one] | 6.00 to 7.00 | 6.00 to 7.00 | > 7.00 | > 7.00 | – | –
C[C@H](Nc1nccc(-c2cncn2CC2CC2)n1)c1cc2cc(Cl)ccc2[nH]c1=O [Compound I-61] | 6.00 to 7.00 | > 7.00 | > 7.00 | 6.00 to 7.00 | – | –
C[C@H](Nc1nccc(-c2cnc3ccccn23)n1)c1cc2cc(Cl)ccc2[nH]c1=O [Compound I-63, (S)-6-chloro-3-(1-((4-(imidazo[1,2-a]pyridin-3-yl)pyrimidin-2-yl)amino)ethyl)quinolin-2(1H)-one] | 5.00 to 6.00 | > 7.00 | > 7.00 | 6.00 to 7.00 | – | –
